Results on four compounds are retold here after ChEMBL document CHEMBL1201862, “PubChem BioAssay data set” (2004).

Active and inactive are the calls of the source.

What is called AC50 is the concentration giving half of the maximal activity seen. By IC50 is commonly meant the point on the concentration scale where inhibition reaches its midpoint.

A short description of experiment [1]: HepG2 cell cytotoxicity, dose response, cytotoxicity control, cherry-picked samples (AID 1159577). In kind it is functional, cell-based.
The nature of experiment [2]: NIH:OVCAR-3 ovarian cancer cell cytotoxicity, dose response, PAX8 inhibitor project, plate reader, dry powder samples (AID 743044). It counts as functional, cell-based.
Experiment [3] in a line: P. falciparum Dd2 growth inhibitors, dose response, SYBR Green, cherry-picked samples (AID 1159567). It counts as functional, cell-based.
A short description of experiment [4]: P. falciparum Dd2 growth inhibitors, dose response, SYBR Green, dry powder samples, set 9 (AID 1159568). It counts as functional, cell-based.
The next experiment has as its target Paired box protein Pax-8 (Homo sapiens, UniProt Q06710). Description: inhibitors of PAX8-driven TPO luciferase reporter, dose response, RMG-I cells, cherry-pick (AID 687027).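 Further: luciferase reporter driven by Pax8 target thyroperoxidase promoter measured by SteadyGlo luminescence.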 It counts as functional, cell-based. On the technique in general: A reporter such as luciferase makes a cellular process visible.
A short description of experiment [5]: P. falciparum ATP4 D1247Y mutant growth inhibitors, dose response, NITD609-resistant line, SYBR Green, dry powder (AID 1159571).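 Further: parasites synchronized at ring stage by sorbitol before testing.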 It counts as functional, cell-based.
Experiment [6] in a line: P. falciparum 3D7-ScDHODH growth inhibitors, dose response, SYBR Green, dry powder samples (AID 1159570).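 Further: parasite growth measured after 72 hours of compound exposure.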 In kind it is functional, cell-based.
Experiment [7] can be described thus: P. falciparum Dd2 growth inhibitors, dose response, SYBR Green, dry powder samples (AID 1159566).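 Further: potency for growth inhibition with lower SYBR green DNA signal.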 It counts as functional, cell-based.
A short description of experiment [8]: Plasmodium falciparum Dd2 Sybr green parasite growth Measured in Cell-Based and Microorganism Combination System Using Plate Reader - 2153-01_Inhibitor_Dose_DryPowder_Activity_Set3. It counts as functional.
Experiment [9] is described as follows: HepG2 cell cytotoxicity, dose response, cytotoxicity control, plate reader, dry powder samples (AID 1159569).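 Further: inhibitor potency with signal falling toward the positive control level.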 In kind it is functional, cell-based.
Experiment [10] can be described thus: cytotoxicity toward Colo320 cells – cell-based, CellTiter-Glo luminescence, IC50, dose response (AID 1117334). It counts as functional. As to conditions: COLO 320. (In ATP-based viability assays light output follows the ATP content of the culture.)
The nature of experiment [11]: cytotoxicity toward HCT116 cells – cell-based, CellTiter-Glo luminescence, IC50, dose response (AID 1117332). In kind it is functional. As to conditions: HCT-116.
Experiment [12] can be described thus: Concentration-dependent survival of SW480 colon cancer line, luminescence detection with CellTiter-Glo, half-maximal inhibitory concentration (AID 1117338). In kind it is functional.
The nature of experiment [13]: cytotoxicity toward HT-29 cells – cell-based, CellTiter-Glo luminescence, IC50, dose response (AID 1117330). In kind it is functional.
Experiment [14] can be described thus: CellTiter-Glo luminescent dose response of DLD-1 viability loss (AID 1117352). It counts as functional.
The nature of experiment [15]: cytotoxicity in HEK-293T cells, dose response, cytotoxicity control for TCR NF-kB inhibitor project, luminescence, T-cell screen hits (AID 489026).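 Further: cells exposed to compound about 14 hours before the viability readout.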 In kind it is functional, cell-based.
The nature of experiment [16]: SNU-C1 cell viability reduction, dose response, CellTiter-Glo luminescence (AID 1117323). It counts as functional, cell-based.
Experiment [17] can be described thus: RKO cell viability reduction, dose response, CellTiter-Glo luminescence (AID 1117322). In kind it is functional.

Paired box protein Pax-8, sequence (Q06710 whole entry): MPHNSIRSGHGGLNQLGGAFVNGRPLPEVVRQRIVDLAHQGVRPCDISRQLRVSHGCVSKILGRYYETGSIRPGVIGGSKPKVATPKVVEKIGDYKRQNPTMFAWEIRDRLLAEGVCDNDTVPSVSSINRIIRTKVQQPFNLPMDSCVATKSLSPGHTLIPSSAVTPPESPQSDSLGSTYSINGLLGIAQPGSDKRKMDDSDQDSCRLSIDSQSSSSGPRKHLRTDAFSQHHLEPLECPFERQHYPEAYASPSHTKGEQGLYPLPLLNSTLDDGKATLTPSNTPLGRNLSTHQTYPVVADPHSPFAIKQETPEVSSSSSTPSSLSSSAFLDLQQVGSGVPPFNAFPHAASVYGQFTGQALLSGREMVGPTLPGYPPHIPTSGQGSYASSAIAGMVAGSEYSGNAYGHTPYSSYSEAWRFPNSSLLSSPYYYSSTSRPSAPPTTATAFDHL

On to `COc1cccc(S(=O)(=O)N2CCCCN3[C@@H](CO)[C@@H](c4ccc(C#CCC(C)C)cc4)[C@@H]3C2)c1`, for which the AC50 in experiment [1] was 11.8 µM (active); in experiment [2], 43.3 µM (active); in [3] it was 0.991 µM (active); in experiment [4], 1.48 µM (active); at Paired box protein Pax-8, 14.6 µM (active).
Take `CCCNC(=O)Nc1ccc2c(c1)OC[C@@H](C)N(Cc1ccccc1)C[C@@H](C)[C@H](OC)CN(C)C2=O`: the AC50 is 828 nM (active) in experiment [5]; 3.25 µM (active) in [6]; 1.43 µM (active) in experiment [3]; 154 nM (active) in [7]; 0.307 µM (active) in experiment [4]; 826 nM (active) in experiment [8].
Regarding `CCCNC(=O)N1[C@H](C#N)[C@H](c2ccc(-c3cccnc3)cc2)[C@H]1CO`, the AC50 is 1160 nM (active) in experiment [5]; > 39 µM (inactive) in experiment [6]; > 100 µM (inactive) in [9]; 1.49 µM (active) in experiment [3]; 822 nM (active) in experiment [7]; 927 nM (active) in experiment [8].
For `Nc1ncn([C@@H]2O[C@H](CO)[C@@H](O)[C@H]2O)c(=O)n1` [AZACITIDINE], the IC50 in experiment [10] is 12.3 µM (inactive); in experiment [11], 3.04 µM (active); in [12], > 6.67 µM (inactive); in [13] it was 12.5 µM (inactive); in experiment [14], 2.55 µM (active); in [15], > 80 µM (inactive). The IC50 is 1.8 µM (active) in [16] and 7.4 µM (inactive) in experiment [17].
